According to patent US9447408B2, “Method of efficiently establishing induced pluripotent stem cells” (Kyoto University, priority 2010, dated 2016):

What was measured:
[1] = test system: Human dermal fibroblasts (Tig109 line); experiment: Human iPS cell colony formation, 3 genes introduced, various p38 inhibitors; assay type: cell-based; conditions: 10 μM inhibitor
Method: Human dermal fibroblasts (Tig109 line) were treated using a lentivirus (pLenti6/UbC-Slc7a1) according to the method described by Takahashi, K. et al. in Cell, 131: 861-872 (2007), to express the mouse ecotropic virus receptor Slc7a1 gene. These cells (2×10^5 cells/10 cm dish) were transfected with the four genes using a retrovirus according to the method described by Takahashi, K. et al. in Cell, 131: 861-872 (2007); each compound was added per the schedule shown below. • 1. Oct3/4, Sox2, Klf4, c-Myc, each derived from human, saline • 2. Oct3/4, Sox2, Klf4, c-Myc, each derived from human, DMSO (Day 5-35) • 3. Oct3/4, Sox2, Klf4, c-Myc, each derived from human, SB202190 10 μM (Day 5-20) • 4. Oct3/4, Sox2, Klf4, c-Myc, each derived from human, SB239063 10 μM (Day 5-20) • 5. Oct3/4, Sox2, Klf4, c-Myc, each derived from human, SB202190 10 μM (Day 21-35) • 6. Oct3/4, Sox2, Klf4, c-Myc, each derived from human, SB239063 10 μM (Day 21-35) • 7. Oct3/4, Sox2, Klf4, c-Myc, each derived from human, SB202190 10 μM (Day 5-35) • 8. Oct3/4, Sox2, Klf4, c-Myc, each derived from human, SB239063 10 μM (Day 5-35) Subsequently, three genes (Oct3/4, Sox2, Klf4) were introduced using a retrovirus in the same manner, and the efficiency of iPS cell establishment was compared. • 1. Oct3/4, Sox2, Klf4, each derived from human, saline • 2. Oct3/4, Sox2, Klf4, each derived from human, DMSO (Day 5-35) • 3. […]

[2] = test system: Human dermal fibroblasts (HDF 1616 line); experiment: Human iPS cell colony formation, 4 genes introduced, SB202190 added Day 0 or day 5; assay type: cell-based
Method: Human dermal fibroblasts (HDF 1616 line) were treated using a lentivirus (pLenti6/UbC-Slc7a1) according to the method described by Takahashi, K. et al. in Cell, 131: 861-872 (2007), to express the mouse ecotropic virus receptor Slc7a1 gene. These cells were seeded to a 6-well culture plate (Falcon), previously coated with 0.1% gelatin (Sigma), at 1.0×10^5 cells per well. The following day, the four human genes were introduced using a retrovirus according to the method described by Takahashi, K. et al. in Cell, 131: 861-872 (2007). On day 4 after the infection, 2.0×10^5 cells were seeded to a 100 mm dish, containing previously seeded feeder cells. To determine the effect of a p38 inhibitor, SB202190 was added simultaneously with the infection (Day 0), or on day 5 after the infection, and the efficiency of iPS cell establishment was compared. On day 16 after the infection, iPS cell colonies were counted. The results are shown in the upper panel in FIG. 3. In the context of introduction of the four genes (Oct3/4, Sox2, Klf4, C-Myc), the number of human iPS cell colonies increased with the addition of SB202190 in the initial stage after the infection, compared with the addition of DMSO for control and the addition of SB202190 on day 5 after the infection. The four genes were introduced using a retrovirus in the same manner, but at a different cell density (3×10^4 cells/10 cm dish), with simultaneous addition of SB202190 (Day 0). SB202190 was added also on day 5 after the infection, and the efficiency of iPS cell establishment was compared. On day 16 after the infection, colony sizes were measured. The results are shown in the lower panel in FIG. 3. Even when the cell density was changed, the number of iPS cell colonies increased with the addition of SB202190 along with the four factors (Oct3/4, Sox2, Klf4, C-Myc), compared with the addition of DMSO.

For `Oc1ccc(-c2nc(-c3ccc(F)cc3)c(-c3ccncc3)[nH]2)cc1` [SB202190, 4-(4-fluorophenyl)-2-(4-hydroxyphenyl)-5-(4-pyridyl)imidazole], the “number of iPS cell colonies on day 40 after the infection compared with physiological saline and DMSO” value [1] was “increased remarkably”, the “number of positive colonies on day 32 after the infection compared with physiological saline and DMSO” value [1] was “increased” and the “number of human iPS cell colonies on day 16 after the infection” value ([2]; 2.0×10^5 cells/100 mm dish, added in the initial stage (Day 0), compared with DMSO and addition on day 5) was “increased”. For the same compound, the “number of iPS cell colonies on day 16 compared with DMSO” value ([2]; 3×10^4 cells/10 cm dish) was “increased” and the “efficiency of iPS cell establishment, added on day 5 versus simultaneously with the infection” value ([2]; lower cell density 3×10^4 cells/10 cm dish) was “higher”.
